Measurements reported in patent US5202315A, “Cephalosporin compounds” (Lucky, Ltd., priority 1989, dated 1993).
In brackets after ≈: the same amount, converted by molar mass.

Assays:
Test in all cases: Antibacterial activity, MIC
Format in all cases: cell-based
[1] = test system: Acinetobacter calcoaceticus ATCC 15473; details: ATCC15473, ATCC 15473, agar two-fold dilution, 37° C., 20 hours, read-out: MIC
Summary of the method: (§1)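 Plates of Mueller-Hinton agar containing two-fold serial dilutions of compound were inoculated with 2 μl of test strain suspension (10^7 CFU per ml) and incubated for 20 hours at 37 °C.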

[2] = test system: Bacillus cereus ATCC 11778; details: ATCC11778, ATCC 11778, agar two-fold dilution, 37° C., 20 hours, read-out: MIC
Summary of the method: as §1

[3] = test system: Bacillus megaterium ATCC 9885; details: Priestia megaterium, ATCC9885; ATCC 9885; agar two-fold dilution, 37° C., 20 hours; read-out: MIC
Summary of the method: as §1

[4] = test system: Citrobacter freundii ATCC 8090; details: ATCC8090, ATCC 8090, agar two-fold dilution, 37° C., 20 hours, read-out: MIC
Summary of the method: as §1

[5] = test system: Enterobacter aerogenes ATCC 29751; details: Klebsiella aerogenes, ATCC29751; ATCC 29751; agar two-fold dilution, 37° C., 20 hours; read-out: MIC
Summary of the method: as §1

[6] = test system: Enterobacter cloacae ATCC 27508; details: ATCC27508, ATCC 27508, agar two-fold dilution, 37° C., 20 hours, read-out: MIC
Summary of the method: as §1

[7] = test system: Escherichia coli ATCC 10536; details: ATCC10536, agar two-fold dilution, 37° C., 20 hours
Summary of the method: as §1

[8] = test system: Escherichia coli ATCC 25922; details: ATCC25922, agar two-fold dilution, 37° C., 20 hours
Summary of the method: as §1

[9] = test system: Klebsiella pneumoniae ATCC 10031; details: ATCC10031, ATCC 10031, agar two-fold dilution, 37° C., 20 hours, read-out: MIC
Summary of the method: as §1

[10] = test system: Micrococcus luteus ATCC 9341; details: ATCC9341, ATCC 9341, agar two-fold dilution, 37° C., 20 hours, read-out: MIC
Summary of the method: as §1

[11] = test system: Morganella morganii ATCC 8076h; details: ATCC8076H, agar two-fold dilution, 37° C., 20 hours
Summary of the method: as §1

[12] = test system: Proteus mirabilis ATCC 25933; details: ATCC25933, ATCC 25933, agar two-fold dilution, 37° C., 20 hours, read-out: MIC
Summary of the method: as §1

[13] = test system: Proteus vulgaris ATCC 6059; details: ATCC6059, ATCC 6059, agar two-fold dilution, 37° C., 20 hours, read-out: MIC
Summary of the method: as §1

[14] = test system: Providencia rettgeri ATCC 9250; details: ATCC9250, agar two-fold dilution, 37° C., 20 hours
Summary of the method: as §1

[15] = test system: Pseudomonas aeruginosa ATCC 10145; details: ATCC10145, ATCC 10145, agar two-fold dilution, 37° C., 20 hours, read-out: MIC
Summary of the method: as §1

[16] = test system: Pseudomonas aeruginosa ATCC 25619; details: ATCC25619, ATCC 25619, agar two-fold dilution, 37° C., 20 hours, read-out: MIC
Summary of the method: as §1

[17] = test system: Pseudomonas aeruginosa ATCC 27853; details: ATCC27853, ATCC 27853, agar two-fold dilution, 37° C., 20 hours, read-out: MIC
Summary of the method: as §1

[18] = test system: Salmonella typhimurium ATCC 14028; details: Salmonella enterica; ATCC 14028; agar two-fold dilution, 37° C., 20 hours; read-out: MIC
Summary of the method: as §1

[19] = test system: Serratia marcescens ATCC 27117; details: ATCC27117, ATCC 27117, agar two-fold dilution, 37° C., 20 hours, read-out: MIC
Summary of the method: as §1

[20] = test system: Shigella flexneri ATCC 11836; details: ATCC11836, agar two-fold dilution, 37° C., 20 hours
Summary of the method: as §1

[21] = test system: Shigella sonnei ATCC 11060; details: ATCC11060, ATCC 11060, agar two-fold dilution, 37° C., 20 hours, read-out: MIC
Summary of the method: as §1

[22] = test system: Staphylococcus aureus ATCC 10537; details: ATCC10537, ATCC 10537, agar two-fold dilution, 37° C., 20 hours, read-out: MIC
Summary of the method: as §1

[23] = test system: Staphylococcus aureus ATCC 6538p; details: ATCC6538P, ATCC 6538p, agar two-fold dilution, 37° C., 20 hours, read-out: MIC
Summary of the method: as §1

[24] = test system: Staphylococcus epidermidis ATCC 12228; details: ATCC12228, ATCC 12228, agar two-fold dilution, 37° C., 20 hours, read-out: MIC
Summary of the method: as §1

[25] = test system: Streptococcus faecalis ATCC 29212; details: Enterococcus faecalis, ATCC29212; ATCC 29212; agar two-fold dilution, 37° C., 20 hours; read-out: MIC
Summary of the method: as §1

SMILES | MIC [1] [µg/mL] | MIC [2] [µg/mL] | MIC [3] [µg/mL] | MIC [4] [µg/mL] | MIC [5] [µg/mL] | MIC [6] [µg/mL] | MIC [7] [µg/mL] | MIC [8] [µg/mL] | MIC [9] [µg/mL] | MIC [10] [µg/mL] | MIC [11] [µg/mL] | MIC [12] [µg/mL] | MIC [13] [µg/mL] | MIC [14] [µg/mL] | MIC [15] [µg/mL] | MIC [16] [µg/mL] | MIC [17] [µg/mL] | MIC [18] [µg/mL] | MIC [19] [µg/mL] | MIC [20] [µg/mL] | also measured
COc1cccc(OC)c1-[n+]1c(N)cc(N)nc1SCC1=C(C(=O)[O-])N2C(=O)C(NC(=O)/C(=N\OC(C)(C)C(=O)O)c3csc(N)n3)C2SC1 (stereo not drawn) [Compound I-43] | 32 (≈ 42.9 µM) | 32 (≈ 42.9 µM) | 0.25 (≈ 0.335 µM) | 1 (≈ 1.34 µM) | 2 (≈ 2.68 µM) | 0.25 (≈ 0.335 µM) | 0.5 (≈ 0.67 µM) | 0.5 (≈ 0.67 µM) | 0.25 (≈ 0.335 µM) | 0.25 (≈ 0.335 µM) | 0.031 (≈ 0.0416 µM) | 0.5 (≈ 0.67 µM) | 0.5 (≈ 0.67 µM) | 0.031 (≈ 0.0416 µM) | 8 (≈ 10.7 µM) | 4 (≈ 5.36 µM) | 4 (≈ 5.36 µM) | 2 (≈ 2.68 µM) | 2 (≈ 2.68 µM) | 0.25 (≈ 0.335 µM) | MIC [21]: 0.5 µg/mL (≈ 0.67 µM); MIC [22]: 2 µg/mL (≈ 2.68 µM); MIC [23]: 4 µg/mL (≈ 5.36 µM); MIC [24]: 2 µg/mL (≈ 2.68 µM); MIC [25]: > 128 µg/mL
CO/N=C(\C(=O)NC1C(=O)N2C(C(=O)[O-])=C(CSc3nc(N)cc(N)[n+]3N)CSC12)c1csc(N)n1 (stereo not drawn) [Compound I-19] | 4 (≈ 7.24 µM) | 8 (≈ 14.5 µM) | 0.13 (≈ 0.235 µM) | 0.13 (≈ 0.235 µM) | 0.25 (≈ 0.452 µM) | 0.016 (≈ 0.029 µM) | 0.13 (≈ 0.235 µM) | 0.13 (≈ 0.235 µM) | ≤ 0.008 | 0.016 (≈ 0.029 µM) | 0.008 (≈ 0.0145 µM) | 0.13 (≈ 0.235 µM) | 0.016 (≈ 0.029 µM) | ≤ 0.008 | 2 (≈ 3.62 µM) | 0.5 (≈ 0.905 µM) | 1 (≈ 1.81 µM) | 0.25 (≈ 0.452 µM) | 0.25 (≈ 0.452 µM) | 0.016 (≈ 0.029 µM) | MIC [21]: 0.063 µg/mL (≈ 0.114 µM); MIC [22]: 0.5 µg/mL (≈ 0.905 µM); MIC [23]: 0.25 µg/mL (≈ 0.452 µM); MIC [24]: 0.063 µg/mL (≈ 0.114 µM); MIC [25]: 32 µg/mL (≈ 57.9 µM)
CCO/N=C(\C(=O)NC1C(=O)N2C(C(=O)[O-])=C(CSc3nc(N)cc(N)[n+]3-c3ccc(Cl)cc3)CSC12)c1csc(N)n1 (stereo not drawn) [Compound I-40] | 16 (≈ 24.2 µM) | 16 (≈ 24.2 µM) | 0.063 (≈ 0.0951 µM) | 1 (≈ 1.51 µM) | 2 (≈ 3.02 µM) | 0.13 (≈ 0.196 µM) | 0.5 (≈ 0.755 µM) | 0.5 (≈ 0.755 µM) | 0.031 (≈ 0.0468 µM) | 0.016 (≈ 0.0242 µM) | 0.016 (≈ 0.0242 µM) | 0.5 (≈ 0.755 µM) | 0.5 (≈ 0.755 µM) | ≤ 0.008 | 16 (≈ 24.2 µM) | 2 (≈ 3.02 µM) | 8 (≈ 12.1 µM) | 2 (≈ 3.02 µM) | 1 (≈ 1.51 µM) | 0.25 (≈ 0.378 µM) | MIC [21]: 0.5 µg/mL (≈ 0.755 µM); MIC [22]: 0.25 µg/mL (≈ 0.378 µM); MIC [23]: 0.5 µg/mL (≈ 0.755 µM); MIC [24]: 0.13 µg/mL (≈ 0.196 µM); MIC [25]: 32 µg/mL (≈ 48.3 µM)
CC[n+]1c(N)cc(N)nc1SCC1=C(C(=O)[O-])N2C(=O)C(NC(=O)/C(=N\OC)c3nsc(N)n3)C2SC1 (stereo not drawn) [Compound I-25] | 2 (≈ 3.53 µM) | 32 (≈ 56.5 µM) | 0.13 (≈ 0.229 µM) | 0.13 (≈ 0.229 µM) | 1 (≈ 1.76 µM) | 0.031 (≈ 0.0547 µM) | 0.13 (≈ 0.229 µM) | 0.13 (≈ 0.229 µM) | 0.031 (≈ 0.0547 µM) | 0.031 (≈ 0.0547 µM) | 0.031 (≈ 0.0547 µM) | 1 (≈ 1.76 µM) | 1 (≈ 1.76 µM) | 0.016 (≈ 0.0282 µM) | 16 (≈ 28.2 µM) | 4 (≈ 7.06 µM) | 4 (≈ 7.06 µM) | 0.25 (≈ 0.441 µM) | 0.25 (≈ 0.441 µM) | 0.031 (≈ 0.0547 µM) | MIC [21]: 0.13 µg/mL (≈ 0.229 µM); MIC [22]: 0.5 µg/mL (≈ 0.882 µM); MIC [23]: 0.5 µg/mL (≈ 0.882 µM); MIC [24]: 0.13 µg/mL (≈ 0.229 µM); MIC [25]: 32 µg/mL (≈ 56.5 µM)
C=CC[n+]1c(N)cc(N)nc1SCC1=C(C(=O)[O-])N2C(=O)C(NC(=O)/C(=N\OCC)c3nsc(N)n3)C2SC1 (stereo not drawn) [Compound I-23] | 8 (≈ 13.5 µM) | 16 (≈ 27 µM) | 0.25 (≈ 0.422 µM) | 0.25 (≈ 0.422 µM) | 2 (≈ 3.37 µM) | 0.031 (≈ 0.0523 µM) | 0.5 (≈ 0.844 µM) | 0.25 (≈ 0.422 µM) | 0.031 (≈ 0.0523 µM) | 0.016 (≈ 0.027 µM) | 0.031 (≈ 0.0523 µM) | 2 (≈ 3.37 µM) | 1 (≈ 1.69 µM) | ≤ 0.008 | 16 (≈ 27 µM) | 2 (≈ 3.37 µM) | 8 (≈ 13.5 µM) | 2 (≈ 3.37 µM) | 1 (≈ 1.69 µM) | 0.13 (≈ 0.219 µM) | MIC [21]: 0.5 µg/mL (≈ 0.844 µM); MIC [22]: 1 µg/mL (≈ 1.69 µM); MIC [23]: 1 µg/mL (≈ 1.69 µM); MIC [24]: 0.25 µg/mL (≈ 0.422 µM); MIC [25]: 32 µg/mL (≈ 54 µM)
CCO/N=C(\C(=O)NC1C(=O)N2C(C(=O)[O-])=C(CSc3nc(N)cc(N)[n+]3CC)CSC12)c1nsc(N)n1 (stereo not drawn) [Compound I-21] | 4 (≈ 6.89 µM) | 16 (≈ 27.6 µM) | 0.13 (≈ 0.224 µM) | 0.13 (≈ 0.224 µM) | 0.5 (≈ 0.861 µM) | 0.016 (≈ 0.0276 µM) | 0.13 (≈ 0.224 µM) | 0.13 (≈ 0.224 µM) | 0.016 (≈ 0.0276 µM) | 0.016 (≈ 0.0276 µM) | 0.016 (≈ 0.0276 µM) | 1 (≈ 1.72 µM) | 1 (≈ 1.72 µM) | ≤ 0.008 | 4 (≈ 6.89 µM) | 1 (≈ 1.72 µM) | 2 (≈ 3.44 µM) | 0.5 (≈ 0.861 µM) | 0.25 (≈ 0.431 µM) | 0.063 (≈ 0.108 µM) | MIC [21]: 0.25 µg/mL (≈ 0.431 µM); MIC [22]: 0.25 µg/mL (≈ 0.431 µM); MIC [23]: 0.5 µg/mL (≈ 0.861 µM); MIC [24]: 0.13 µg/mL (≈ 0.224 µM); MIC [25]: 16 µg/mL (≈ 27.6 µM)
